Literature values, collected in patent publication US7563896B2, “Process of obtaining type II dehydroquinase enzyme inhibitors and precursors thereof” (Universidade de Santiago de Compostela, priority 2003, dated 2009).

Legend:
EPSP synthase = conditions: sixth enzyme of the shikimic acid pathway, read-out: inhibition constant

In the case of `O=C(O)CNCP(=O)(O)O` [Glyphosphate], the Ki (EPSP synthase) is given as ~1000 nM and the effectiveness against malaria (malaria) is given as “effective”.
